Activity coefficient data for 14 compounds are collected here from the NIST ThermoML archive (doi:10.1016/j.jct.2009.06.011).

The nature of the data set: activity coefficient (dimensionless); of the first substance listed, at infinite dilution; xn = mol fraction of the nth substance listed. Particulars: 101 kPa, Liquid, Chromatography, x1 = 0.

The structures appear in SMILES notation. ± gives the expanded uncertainty stated by the source.

For the compound `c1ccsc1` [thiophene] + CCCC[n+]1ccc(C)cc1.O=S(=O)([N-]S(=O)(=O)C(F)(F)F)C(F)(F)F, the activity coefficient (298.15 K) turned out to be 0.609 ± 0.043; the activity coefficient (308.15 K) amounted to 0.624 ± 0.043; the activity coefficient (318.15 K) was 0.637 ± 0.044; the activity coefficient (328.15 K) amounted to 0.649 ± 0.044; the activity coefficient (338.15 K) was 0.661 ± 0.045; the activity coefficient (348.15 K) came out at 0.672 ± 0.046. Further, the activity coefficient is 0.683 ± 0.046 (358.15 K) and 0.694 ± 0.047 (368.15 K).

Regarding `C1CCOC1` [tetrahydrofuran] + CCCC[n+]1ccc(C)cc1.O=S(=O)([N-]S(=O)(=O)C(F)(F)F)C(F)(F)F, the activity coefficient reads like this: (298.15 K) 0.617 ± 0.043; (308.15 K) 0.63 ± 0.044; (318.15 K) 0.641 ± 0.044; (328.15 K) 0.653 ± 0.045; (338.15 K) 0.663 ± 0.045; (348.15 K) 0.673 ± 0.046. Also, the activity coefficient reads like this: (358.15 K) 0.683 ± 0.046; (368.15 K) 0.693 ± 0.047.

On to `C=CCCCCC` [1-heptene] + CCCC[n+]1ccc(C)cc1.O=S(=O)([N-]S(=O)(=O)C(F)(F)F)C(F)(F)F, for which the activity coefficient (298.15 K) was 9.97 ± 0.68; the activity coefficient (308.15 K) stood at 9.56 ± 0.65; the activity coefficient (318.15 K) was 9.17 ± 0.63; the activity coefficient (328.15 K) was 8.82 ± 0.6; the activity coefficient (338.15 K) stood at 8.51 ± 0.58; the activity coefficient (348.15 K) is 8.24 ± 0.56. Also, the activity coefficient is, setting by setting: (358.15 K) 7.99 ± 0.54; (368.15 K) 7.76 ± 0.53.

On to `CC(C)=O` [acetone] + CCCC[n+]1ccc(C)cc1.O=S(=O)([N-]S(=O)(=O)C(F)(F)F)C(F)(F)F, for which the activity coefficient is, setting by setting: (298.15 K) 0.398 ± 0.034; (308.15 K) 0.406 ± 0.034; (318.15 K) 0.415 ± 0.035; (328.15 K) 0.423 ± 0.035; (338.15 K) 0.43 ± 0.035; (348.15 K) 0.438 ± 0.035. Besides, the activity coefficient came out at 0.445 ± 0.036 (358.15 K) and 0.451 ± 0.036 (368.15 K).

`C=CCCC` [1-pentene] + CCCC[n+]1ccc(C)cc1.O=S(=O)([N-]S(=O)(=O)C(F)(F)F)C(F)(F)F: the activity coefficient runs as follows: (298.15 K) 5.81 ± 0.4; (308.15 K) 5.6 ± 0.38; (318.15 K) 5.42 ± 0.37; (328.15 K) 5.24 ± 0.36; (338.15 K) 5.07 ± 0.35; (348.15 K) 4.93 ± 0.34. Moreover, the activity coefficient (358.15 K) was determined as 4.8 ± 0.33 and the activity coefficient (368.15 K) is 4.68 ± 0.32.

On to `O` [water] + CCCC[n+]1ccc(C)cc1.O=S(=O)([N-]S(=O)(=O)C(F)(F)F)C(F)(F)F, for which the activity coefficient runs as follows: (298.15 K) 4.86 ± 0.33; (308.15 K) 4.2 ± 0.29; (318.15 K) 3.65 ± 0.25; (328.15 K) 3.21 ± 0.22; (338.15 K) 2.85 ± 0.19; (348.15 K) 2.54 ± 0.17. For the same compound, the activity coefficient by setting is: (358.15 K) 2.26 ± 0.15; (368.15 K) 2.05 ± 0.14.

Consider `c1ccccc1` [benzene] + CCCC[n+]1ccc(C)cc1.O=S(=O)([N-]S(=O)(=O)C(F)(F)F)C(F)(F)F, for which the activity coefficient (298.15 K) came to 0.683 ± 0.046; the activity coefficient (308.15 K) is 0.702 ± 0.047; the activity coefficient (318.15 K) was determined as 0.719 ± 0.048; the activity coefficient (328.15 K) amounted to 0.735 ± 0.049; the activity coefficient (338.15 K) stood at 0.75 ± 0.049; the activity coefficient (348.15 K) came out at 0.767 ± 0.05. Moreover, the activity coefficient is, setting by setting: (358.15 K) 0.781 ± 0.051; (368.15 K) 0.795 ± 0.052.

For `CCCOCCC` [dipropyl ether] + CCCC[n+]1ccc(C)cc1.O=S(=O)([N-]S(=O)(=O)C(F)(F)F)C(F)(F)F, the activity coefficient by setting is: (298.15 K) 4.91 ± 0.33; (308.15 K) 4.81 ± 0.33; (318.15 K) 4.71 ± 0.32; (328.15 K) 4.62 ± 0.31; (338.15 K) 4.54 ± 0.31; (348.15 K) 4.45 ± 0.3. Besides, the activity coefficient came out at 4.38 ± 0.3 (358.15 K) and 4.31 ± 0.29 (368.15 K).

Regarding `Cc1ccccc1C` [1,2-dimethylbenzene] + CCCC[n+]1ccc(C)cc1.O=S(=O)([N-]S(=O)(=O)C(F)(F)F)C(F)(F)F, the activity coefficient stood at 1.21 ± 0.08 (318.15 K); 1.24 ± 0.08 (328.15 K); 1.27 ± 0.08 (338.15 K); 1.3 ± 0.08 (348.15 K); 1.32 ± 0.09 (358.15 K); 1.35 ± 0.09 (368.15 K).

Consider `CCc1ccccc1` [ethylbenzene] + CCCC[n+]1ccc(C)cc1.O=S(=O)([N-]S(=O)(=O)C(F)(F)F)C(F)(F)F, for which the activity coefficient worked out at 1.45 ± 0.1 (318.15 K); 1.48 ± 0.1 (328.15 K); 1.5 ± 0.1 (338.15 K); 1.52 ± 0.1 (348.15 K); 1.54 ± 0.1 (358.15 K); 1.56 ± 0.1 (368.15 K).

In the case of `CCCCCCCCCC` [decane] + CCCC[n+]1ccc(C)cc1.O=S(=O)([N-]S(=O)(=O)C(F)(F)F)C(F)(F)F, the activity coefficient (298.15 K) stood at 54.7 ± 3.7; the activity coefficient (308.15 K) was 49.3 ± 3.4; the activity coefficient (318.15 K) amounted to 45 ± 3.1; the activity coefficient (328.15 K) was found to be 41.1 ± 2.8; the activity coefficient (338.15 K) is 37.6 ± 2.6; the activity coefficient (348.15 K) worked out at 34.6 ± 2.4. Also, the activity coefficient runs as follows: (358.15 K) 31.9 ± 2.2; (368.15 K) 29.7 ± 2.

Take `Cc1ccccc1` [toluene] + CCCC[n+]1ccc(C)cc1.O=S(=O)([N-]S(=O)(=O)C(F)(F)F)C(F)(F)F: the activity coefficient was found to be 0.973 ± 0.061 (318.15 K); 1 ± 0.063 (328.15 K); 1.02 ± 0.064 (338.15 K); 1.05 ± 0.066 (348.15 K); 1.07 ± 0.067 (358.15 K); 1.09 ± 0.069 (368.15 K).

As for `CCCCO` [butan-1-ol] + CCCC[n+]1ccc(C)cc1.O=S(=O)([N-]S(=O)(=O)C(F)(F)F)C(F)(F)F, the activity coefficient reads like this: (318.15 K) 2.26 ± 0.15; (328.15 K) 2.05 ± 0.14; (338.15 K) 1.87 ± 0.13; (348.15 K) 1.71 ± 0.11; (358.15 K) 1.57 ± 0.1; (368.15 K) 1.46 ± 0.1.

Consider `C1CCCC1` [cyclopentane] + CCCC[n+]1ccc(C)cc1.O=S(=O)([N-]S(=O)(=O)C(F)(F)F)C(F)(F)F, for which the activity coefficient (298.15 K) came to 6.65 ± 0.45; the activity coefficient (308.15 K) is 6.25 ± 0.43; the activity coefficient (318.15 K) was determined as 5.89 ± 0.4; the activity coefficient (328.15 K) was determined as 5.59 ± 0.38; the activity coefficient (338.15 K) was 5.28 ± 0.36; the activity coefficient (348.15 K) worked out at 5.03 ± 0.34. Moreover, the activity coefficient reads like this: (358.15 K) 4.81 ± 0.33; (368.15 K) 4.6 ± 0.31.
